# Results as given in patent US20020137929A1, “1 - (3-heterocyclylphenyl) isothiourea, -isourea, -guanidine and -amidine herbicidal agents” (Intellectual Property Department, BASF Aktiengesellschaft, priority 1998, published 2002).
# Experiments:
# [1] = tested on: ABUTH (Velvetleaf); experiment: Postemergence herbicidal evaluation; type: in vivo, Abutilon theophrasti; details: postemergence
# Outline: (§1)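 First, seedlings were raised for around two weeks. Next, test material in 50/50 acetone/water containing 0.5% TWEEN 20 was sprayed through a nozzle at 40 psi, equivalent to about 0.0156–0.500 kg/ha. Finally, after 4–5 weeks in the greenhouse, plants were rated 0–9.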
# [2] = tested on: AMBEL (Ragweed, Common); experiment: Postemergence herbicidal evaluation; type: in vivo, Ambrosia artemisifolia; details: postemergence
# Outline: as §1
# [3] = tested on: CHEAL (Lambsquarters, Common); experiment: Postemergence herbicidal evaluation; type: in vivo, Chenopodium album; details: postemergence
# Outline: as §1
# [4] = tested on: ECHCG (Barnyardgrass); experiment: Postemergence herbicidal evaluation; type: in vivo, Echinochloa crus-galli; details: postemergence
# Outline: as §1
# [5] = tested on: GLXMAW (Soybean, Williams); experiment: Postemergence herbicidal evaluation; type: in vivo, Glycine max, (L.) Merr. cv Williams; details: postemergence
# Outline: as §1
# [6] = tested on: ORYSAT (Rice, Tebonnet); experiment: Postemergence herbicidal evaluation; type: in vivo, Oryza sativa, (L.) Tebonnet; details: postemergence
# Outline: as §1
# [7] = tested on: ZEAMX (Corn, Field); experiment: Postemergence herbicidal evaluation; type: in vivo, Zea mays; details: postemergence
# Outline: as §1
# [8] = tested on: AMBEL (Ragweed, Common); experiment: Preemergence herbicidal evaluation; type: in vivo, Ambrosia artemisifolia; details: rated 4-5 weeks after treatment
# Outline: (§2)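 Steps: mix seeds into potting soil; plant atop ~1 inch soil; spray compound in aqueous acetone (~0.0156-0.500 kg/ha equivalent); maintain in greenhouse with watering; rate visually 0-9 versus control at 4-5 weeks.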
# [9] = tested on: CASOB (Sicklepod); experiment: Preemergence herbicidal evaluation; type: in vivo, Cassia obtusifolia; details: rated 4-5 weeks after treatment
# Outline: as §2
# [10] = tested on: CHEAL (Lambsquarters, Common); experiment: Preemergence herbicidal evaluation; type: in vivo, Chenopodium album; details: rated 4-5 weeks after treatment
# Outline: as §2
# [11] = tested on: GALAP (Galium); experiment: Preemergence herbicidal evaluation; type: in vivo, Galium aparine; details: rated 4-5 weeks after treatment
# Outline: as §2
# [12] = tested on: CYPSE (Flatsedge); experiment: Preemergence weed control under flooded paddy conditions; type: in vivo, Cyperus serotinus; details: rated 3-4 weeks after treatment
# Outline: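 Greenhouse paddy assay. Acetone/water (50/50 v/v) solutions dosed into flood water, equivalent to about 0.0313 to 0.500 kg/ha active ingredient, over seeds planted 0.5 cm deep in silt loam. Score: 0-9 visual, based on stand, vigor, malformation, size and chlorosis, 3 to 4 weeks after treatment.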
# [13] = tested on: CYPIR (Rice Flatsedge); experiment: Postemergence weed control under flooded paddy conditions; type: in vivo, Cyperus iria; details: postemergence weeds, rated 3 to 4 weeks after treatment
# Outline: (§3)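 Injury ratings (0–9 scale covering stand, vigor, malformation, size, chlorosis and overall appearance versus control) were made three to four weeks after treatment. Test material, about 0.0313 to 0.500 kg/ha a.i. in 50/50 v/v aqueous/acetone, was added to flood water 1.5 to 3 cm deep over 3 to 5 cm weeds and 1.5 to 2.5 leaf rice.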
# [14] = tested on: CYPSE (Flatsedge); experiment: as above; type: in vivo, Cyperus serotinus; details: postemergence weeds, rated 3 to 4 weeks after treatment
# Outline: as §3
smiles,measurement,setting,value
"COC(=O)[C@H](Cc1ccccc1)N1C(=O)CS/C1=N/c1cc(-n2c(=O)cc(C(F)(F)F)n(C)c2=O)c(F)cc1Cl [Compound 72, Methyl α-benzyl-2-{{2-chloro-5-[3,6-dihydro-3-methyl-2,6-dioxo-4-(trifluoromethyl)-1(2H)-pyrimidinyl]-4-fluorophenyl]imino}-4-oxo-3-thiazolidineacetate, L-]",ABUTH herbicidal rating,[1]; rate 0.0158 kg/ha,9.0
same,ABUTH herbicidal rating,[1]; rate 0.0315 kg/ha,9.0
same,ABUTH herbicidal rating,[1]; rate 0.0630 kg/ha,9.0
same,AMBEL herbicidal rating,[2]; rate 0.0158 kg/ha,5.0
same,AMBEL herbicidal rating,[2]; rate 0.0315 kg/ha,9.0
same,AMBEL herbicidal rating,[2]; rate 0.0630 kg/ha,6.0
same,CHEAL herbicidal rating,[3]; rate 0.0158 kg/ha,7.0
same,CHEAL herbicidal rating,[3]; rate 0.0315 kg/ha,9.0
same,ECHCG herbicidal rating,[4]; rate 0.0158 kg/ha,1.0
same,ECHCG herbicidal rating,[4]; rate 0.0315 kg/ha,3.0
same,ECHCG herbicidal rating,[4]; rate 0.0630 kg/ha,3.0
same,GLXMAW herbicidal rating,[5]; rate 0.0158 kg/ha,5.5
same,GLXMAW herbicidal rating,[5]; rate 0.0315 kg/ha,5.5
same,GLXMAW herbicidal rating,[5]; rate 0.0630 kg/ha,7.0
same,ORYSAT herbicidal rating,[6]; rate 0.0158 kg/ha,3.5
same,ORYSAT herbicidal rating,[6]; rate 0.0315 kg/ha,3.5
same,ORYSAT herbicidal rating,[6]; rate 0.0630 kg/ha,4.5
same,ZEAMX herbicidal rating,[7]; rate 0.0158 kg/ha,4.0
same,ZEAMX herbicidal rating,[7]; rate 0.0315 kg/ha,4.5
same,ZEAMX herbicidal rating,[7]; rate 0.0630 kg/ha,6.5
same,Preemergence herbicidal rating AMBEL,[8]; rate 0.0156 kg/ha,0.0
same,Preemergence herbicidal rating AMBEL,[8]; rate 0.0625 kg/ha,2.0
same,Preemergence herbicidal rating AMBEL,[8]; rate 0.1250 kg/ha,9.0
same,Preemergence herbicidal rating AMBEL,[8]; rate 0.2500 kg/ha,9.0
same,Preemergence herbicidal rating CASOB,[9]; rate 0.0156 kg/ha,0.0
same,Preemergence herbicidal rating CASOB,[9]; rate 0.0313 kg/ha,0.0
same,Preemergence herbicidal rating CASOB,[9]; rate 0.0625 kg/ha,0.0
same,Preemergence herbicidal rating CASOB,[9]; rate 0.1250 kg/ha,1.0
same,Preemergence herbicidal rating CASOB,[9]; rate 0.2500 kg/ha,1.0
same,Preemergence herbicidal rating CHEAL,[10]; rate 0.0156 kg/ha,9.0
same,Preemergence herbicidal rating CHEAL,[10]; rate 0.0313 kg/ha,9.0
same,Preemergence herbicidal rating CHEAL,[10]; rate 0.0625 kg/ha,9.0
same,Preemergence herbicidal rating CHEAL,[10]; rate 0.1250 kg/ha,9.0
same,Preemergence herbicidal rating CHEAL,[10]; rate 0.2500 kg/ha,9.0
same,Preemergence herbicidal rating GALAP,[11]; rate 0.0156 kg/ha,0.0
same,Preemergence herbicidal rating GALAP,[11]; rate 0.0313 kg/ha,0.0
same,Preemergence herbicidal rating GALAP,[11]; rate 0.0625 kg/ha,0.0
same,Preemergence herbicidal rating GALAP,[11]; rate 0.1250 kg/ha,0.0
same,Preemergence herbicidal rating GALAP,[11]; rate 0.2500 kg/ha,9.0
same,CYPSE herbicidal effect rating,[12]; 0.0313 kg/ha,0.0
same,CYPSE herbicidal effect rating,[12]; 0.0625 kg/ha,0.0
same,CYPSE herbicidal effect rating,[12]; 0.1250 kg/ha,9.0
same,CYPSE herbicidal effect rating,[12]; 0.2500 kg/ha,9.0
same,Herbicidal rating CYPIR,[13]; Rate 0.0313 kg/ha,6.0
same,Herbicidal rating CYPIR,[13]; Rate 0.0625 kg/ha,6.0
same,Herbicidal rating CYPIR,[13]; Rate 0.1250 kg/ha,7.0
same,Herbicidal rating CYPIR,[13]; Rate 0.2500 kg/ha,9.0
same,Herbicidal rating CYPSE,[14]; Rate 0.0313 kg/ha,0.0
same,Herbicidal rating CYPSE,[14]; Rate 0.0625 kg/ha,0.0
same,Herbicidal rating CYPSE,[14]; Rate 0.1250 kg/ha,9.0
same,Herbicidal rating CYPSE,[14]; Rate 0.2500 kg/ha,9.0
